Laboratory results reported in patent publication US20120082658A1, “Methods for the Treatment of Allergic Diseases” (VentiRx Pharmaceuticals, Inc., priority 2010, published 2012).

Tests used:
TLR5 = target: T1, TLR5 (Homo sapiens, UniProt O60602); test: HEK293 cells transfected with human TLR5, NF-κB driven reporter; type: cell-based; settings: concentration up to 25 uM
T1 construct: expressed in transfected cells; host or cells: HEK293
Method: (§1) FIG. 8 is two graphs depicting the potency and selectivity of VTX-378 for TLR8. The half-maximal effective concentration (EC50) for VTX-378 activation of TLR8 and TLR7 was assessed in peripheral blood mononuclear cells (PBMCs) by the amount of secreted TNFα (A) and by the activity of NF-κB (B) from 15 healthy donors and also in HEK293 cells transfected with various human TLRs.
(§2) Preclinical studies were performed with VTX-378, the active pharmaceutical ingredient in VTX-1463. The specificity of VTX-378 for human TLR8 relative to other TLRs was assessed in transfected Human Embryonic Kidney 293 (HEK293) cells engineered to express individual TLRs (2-9) via transfection, and assessed using an NF-κB driven reporter system. […] The pharmacologic effects of VTX-378 were characterized in vitro using isolated human peripheral blood mononuclear cells (PBMCs).

TLR2 = target: T2, TLR2 (Homo sapiens, UniProt O60603); test: HEK293 cells transfected with human TLR2, NF-κB driven reporter; type: cell-based; settings: concentration up to 25 uM
T2 construct: expressed in transfected cells; host or cells: HEK293
Method: as §1, §2

human whole blood = test: Co-culture of human whole blood, IL-12 and IL-10 production; type: cell-based
From the text: FIG. 9 is two graphs depicting that VTX-378 stimulates production of IL-12 and IL-10.

TLR7 = target: T3, TLR7 (Homo sapiens, UniProt Q9NYK1); test: HEK293 cells transfected with human TLR7, NF-κB driven reporter; type: cell-based; settings: read-out: EC50, activation of TLR7
T3 construct: expressed in transfected cells; host or cells: HEK293
T3 sequence (Q9NYK1 27-1049): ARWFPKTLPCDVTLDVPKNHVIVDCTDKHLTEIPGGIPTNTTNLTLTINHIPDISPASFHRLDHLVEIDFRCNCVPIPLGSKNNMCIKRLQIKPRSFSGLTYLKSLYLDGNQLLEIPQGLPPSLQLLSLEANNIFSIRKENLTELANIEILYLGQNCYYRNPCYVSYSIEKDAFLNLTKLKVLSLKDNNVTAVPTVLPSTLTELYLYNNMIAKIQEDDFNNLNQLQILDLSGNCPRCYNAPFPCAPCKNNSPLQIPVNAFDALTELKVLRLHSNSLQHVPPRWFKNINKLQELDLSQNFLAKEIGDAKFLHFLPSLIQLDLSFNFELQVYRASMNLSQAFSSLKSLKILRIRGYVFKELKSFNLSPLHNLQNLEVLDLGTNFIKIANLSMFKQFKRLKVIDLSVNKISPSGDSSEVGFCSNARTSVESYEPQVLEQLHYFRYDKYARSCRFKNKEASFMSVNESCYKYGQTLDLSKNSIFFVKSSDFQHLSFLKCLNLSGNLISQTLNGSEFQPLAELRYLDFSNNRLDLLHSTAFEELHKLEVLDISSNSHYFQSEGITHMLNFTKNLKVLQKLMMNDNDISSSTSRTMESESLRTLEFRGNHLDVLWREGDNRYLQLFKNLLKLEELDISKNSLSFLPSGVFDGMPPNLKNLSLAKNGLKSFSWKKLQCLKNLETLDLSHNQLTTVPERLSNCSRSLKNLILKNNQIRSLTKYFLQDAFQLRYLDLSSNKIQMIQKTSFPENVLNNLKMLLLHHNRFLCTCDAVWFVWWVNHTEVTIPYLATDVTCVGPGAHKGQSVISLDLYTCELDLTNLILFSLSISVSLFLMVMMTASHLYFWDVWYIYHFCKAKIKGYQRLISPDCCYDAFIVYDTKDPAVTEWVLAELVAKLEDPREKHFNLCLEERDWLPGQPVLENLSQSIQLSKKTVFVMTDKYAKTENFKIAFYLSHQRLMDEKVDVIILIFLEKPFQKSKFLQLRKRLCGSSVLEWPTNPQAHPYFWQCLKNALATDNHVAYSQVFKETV
Method: as §1, §2

[1] = system: ragweed-sensitized beagle dogs; test: Model of allergic rhinitis in ragweed-sensitized beagle dogs (acoustic rhinometry, nasal mediators); type: in vivo, beagle dog
Method: FIG. 1 is four graphs establishing that one day pretreatment with VTX-378 reduces nasal congestion.
The therapeutic activity of VTX-378 was assessed in a well characterized model of allergic rhinitis in ragweed-sensitized beagle dogs (FIGS. 1-7). Acoustic rhinometry (AcR) can be used to measure the direct effect on the nasal mucosa following nasal instillation of ragweed antigen.

[2] = single dose 1000 ug intranasal one day prior to ragweed challenge

T2 sequence (O60603 21-784): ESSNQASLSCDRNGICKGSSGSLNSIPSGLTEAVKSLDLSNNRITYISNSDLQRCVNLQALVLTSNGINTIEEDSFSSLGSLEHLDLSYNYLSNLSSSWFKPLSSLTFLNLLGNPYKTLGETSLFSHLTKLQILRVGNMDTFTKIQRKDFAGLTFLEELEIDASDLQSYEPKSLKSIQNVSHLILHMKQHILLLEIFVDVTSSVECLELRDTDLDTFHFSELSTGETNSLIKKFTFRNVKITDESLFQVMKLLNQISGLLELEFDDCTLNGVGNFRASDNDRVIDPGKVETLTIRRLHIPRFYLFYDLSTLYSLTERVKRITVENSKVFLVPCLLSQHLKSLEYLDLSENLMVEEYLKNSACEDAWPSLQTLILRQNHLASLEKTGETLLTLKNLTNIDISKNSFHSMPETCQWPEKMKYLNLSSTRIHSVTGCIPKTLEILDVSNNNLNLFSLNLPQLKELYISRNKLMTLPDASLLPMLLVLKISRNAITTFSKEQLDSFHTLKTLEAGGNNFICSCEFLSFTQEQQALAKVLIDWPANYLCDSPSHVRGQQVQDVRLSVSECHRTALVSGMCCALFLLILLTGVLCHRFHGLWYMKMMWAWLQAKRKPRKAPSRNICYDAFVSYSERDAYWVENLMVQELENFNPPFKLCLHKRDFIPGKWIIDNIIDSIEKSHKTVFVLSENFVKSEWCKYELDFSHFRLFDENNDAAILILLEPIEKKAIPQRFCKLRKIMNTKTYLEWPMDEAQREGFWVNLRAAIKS
T1 sequence (O60602 21-858): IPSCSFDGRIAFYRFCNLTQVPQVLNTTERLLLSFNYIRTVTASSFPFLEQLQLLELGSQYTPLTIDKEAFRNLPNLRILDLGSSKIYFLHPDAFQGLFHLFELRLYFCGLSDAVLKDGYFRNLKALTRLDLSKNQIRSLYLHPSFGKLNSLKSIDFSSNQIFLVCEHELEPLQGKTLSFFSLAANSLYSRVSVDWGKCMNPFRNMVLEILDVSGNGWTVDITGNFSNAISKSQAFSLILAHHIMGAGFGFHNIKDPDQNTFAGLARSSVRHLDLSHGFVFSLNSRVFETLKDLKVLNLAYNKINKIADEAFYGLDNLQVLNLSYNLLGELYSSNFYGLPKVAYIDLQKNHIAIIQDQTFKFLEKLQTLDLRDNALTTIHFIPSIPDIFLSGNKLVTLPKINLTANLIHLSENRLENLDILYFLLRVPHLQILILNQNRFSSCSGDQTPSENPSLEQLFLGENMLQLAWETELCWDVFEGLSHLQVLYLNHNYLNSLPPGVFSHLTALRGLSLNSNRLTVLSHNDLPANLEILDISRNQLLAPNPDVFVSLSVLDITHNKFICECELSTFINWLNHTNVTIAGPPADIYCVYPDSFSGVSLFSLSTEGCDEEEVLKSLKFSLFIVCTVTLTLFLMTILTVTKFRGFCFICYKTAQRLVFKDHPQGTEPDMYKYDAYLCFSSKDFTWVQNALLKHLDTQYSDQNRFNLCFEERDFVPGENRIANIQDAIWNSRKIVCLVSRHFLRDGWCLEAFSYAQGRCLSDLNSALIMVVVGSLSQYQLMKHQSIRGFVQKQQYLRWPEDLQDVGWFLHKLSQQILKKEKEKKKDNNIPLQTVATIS

CCCN(CCC)C(=O)C1=Cc2ccc(-c3ccc(C(=O)N4CCCC4)cc3)cc2N=C(N)C1 [VTX-378]
activity on TLR5 (TLR5): no detectable activity | activity on TLR2 (TLR2): no detectable activity | production of IL-10 (human whole blood): dose dependent increase | production of IL-12 (human whole blood): dose dependent increase | EC50 (TLR7): ~2000 nM | production of allergic mediators (nasal histamine, leukotrienes C4/D4/E4, prostaglandin D2, prostaglandin E2) ([1]; dose not given): significantly reduced | allergic response to antigen challenge (acoustic rhinometry) ([1]; intranasal 100-1000 mcg): dose-dependent, statistically significant reduction | level of nasal histamine ([1]; single dose 100 ug): less significant | level of nasal leukotrienes C4/D4/E4 ([1]; single dose 100 ug): less significant | level of nasal prostaglandin D2 ([1]; single dose 100 ug): less significant | level of nasal prostaglandin E2 ([1]; single dose 100 ug): less significant | allergic responses (nasal congestion) ([1]; single dose 100 ug, 500 ug and 1000 ug intranasal one day prior to ragweed challenge): significantly attenuated allergic responses | level of nasal histamine [1, 2]: significantly reduced | level of nasal leukotrienes C4/D4/E4 [1, 2]: significantly reduced | level of nasal prostaglandin D2 [1, 2]: significantly reduced | level of nasal prostaglandin E2 [1, 2]: significantly reduced | attenuation of nasal congestion ([1]; single dose of 1000 mcg intranasal before ragweed challenge): 56.5%±10.0 | allergic responses (nasal congestion) ([1]; two 250 ug doses intranasal one day and four-day prior to ragweed challenge): significantly attenuated allergic responses | allergic responses (nasal congestion) ([1]; two 1000 ug doses intranasal, one day and four-day or one day and eight-day prior to ragweed challenge): significantly attenuated allergic responses | improvement of nasal congestion ([1]; two doses of 1000 mcg separated by 4 days): 65.4%±10.3 | improvement of nasal congestion ([1]; two doses of 1000 mcg separated by 7 days): 71.9%±7.7
